Test results from patent US12187722B2, “Small molecule inhibitors of TEAD transcription factors” (The General Hospital Corporation, priority 2019, dated 2025).
“And” between values parts separate entries of the source, which are not always exact repeats. Equal entries are not always repeated. Where two headings read alike, the source gives them in different places.

Tests used:
TEAD2 [1] = target: T1, TEAD2 (Homo sapiens (Human), UniProt Q15562); experiment: In vitro palmitoylation (TEAD2 autopalmitoylation, streptavidin blot); format: biochemical; details: compound at 10 μM
T1 sequence (Q15562 whole entry): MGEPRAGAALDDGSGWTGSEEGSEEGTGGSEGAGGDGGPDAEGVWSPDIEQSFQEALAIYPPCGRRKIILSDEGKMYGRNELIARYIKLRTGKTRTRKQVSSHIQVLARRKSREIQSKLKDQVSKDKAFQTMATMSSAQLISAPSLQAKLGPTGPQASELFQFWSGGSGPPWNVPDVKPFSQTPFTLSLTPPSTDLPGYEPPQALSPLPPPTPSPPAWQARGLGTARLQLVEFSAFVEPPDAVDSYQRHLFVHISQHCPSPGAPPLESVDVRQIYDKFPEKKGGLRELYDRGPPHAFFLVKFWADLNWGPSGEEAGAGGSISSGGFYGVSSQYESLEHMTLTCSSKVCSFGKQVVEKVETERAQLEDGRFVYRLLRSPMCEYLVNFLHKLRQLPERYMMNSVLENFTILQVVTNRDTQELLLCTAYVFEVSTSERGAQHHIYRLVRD
How it was run: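 Recombinant GST- or His6-TEAD2 (500 ng) preincubated 15 min with compound, then 30 min with 1 μM alkyne palmitoyl-CoA; click-labelled with biotin-azide (1 h, RT). Streptavidin-HRP blot band intensity quantified after SDS-PAGE; inhibition of autopalmitoylation relative to DMSO control.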

TEAD2 [2] = target: T1, TEAD2; experiment: CMP assay (CPM fluorescence detection of free CoA); format: biochemical
Protocol: 7-Diethylamino-3-(4′-Maleimidylphenyl)-4-Methylcoumarin (CPM), which reacts with thiol of CoA liberated in the enzymatic reaction, and gives fluorescent signal (excitation ˜350-380, emission-460-480). The assay detects the product (free CoA) which is produced from palmitoyl-CoA as a method to detect the enzymatic activity. Test compounds that inhibit TEAD activity are therefore able to block the CMP fluorescent signal.
TEAD2/4 protein (10 μL of a 50 ng/μL solution) and a solution the test compound (0.5 μL, variable concentration) were pre-incubated for 30 min at r.t. A mixture prepared from MES pH 6.4 buffer (6.5 μL of a 50 mM solution), EDTA (1 μL of a 20 mM solution), palmitoyl-CoA (1 μL of a 20 μM solution), and 7-diethylamino-3-(4′-maleimidylphenyl)-4-methylcoumarin (1 μL of a 10 μM solution) was added and the resulting mixture was mixed well using a pipette. The solution was then incubated at r.t. for 30-120 min. in the dark, and fluorescence was detected at […] every 30 min. until the fluorescence signal is saturated. An IC50 for the ability of the compound to inhibit fluorescence is calculated from the results.

[3] = Table 3, unit inferred, read-out: TEAD2 palmitoylation IC50
[4] = Table 2, read-out: IC50 μM (CMP assay)

Row | inhibition at 10 µM (TEAD2 [1]; Table 3) | IC50 (TEAD2 [2]; [3]) | % of inhibition of TEAD2 palmitoylation at 10 μM (TEAD2 [1]; Table 2) | inhibition at 10 µM (TEAD2 [1]; Table 2) | IC50 (TEAD2 [2]; [4]) | SMILES
1 | 86% | 0.32 µM |  |  |  | COc1ccc(Nc2ccc(N(C)c3ccc(C4CC5CCC4C5)cc3)cc2F)c(C(=O)O)c1 (stereo not shown) [CP-585]
2 | 97% | 1.57 µM |  |  |  | COc1ccc(Nc2ccc(N(C)c3ccc(OC(F)(F)F)cc3)cc2F)c(C(=O)O)c1 [CP-589]
3 | 96% | 0.22 µM |  |  |  | COc1ccc(Nc2ccc(N(C)c3ccc(OC(F)(F)F)cc3)cc2C)c(C(=O)O)c1 [CP-590]
4 | 78% | 0.03 µM |  |  |  | COc1ccc(Nc2ccc(N(C)c3ccc(C4CCC(C)(C)CC4)cc3)cc2)c(C(=O)O)c1 [CP-593]
5 | 74% | 0.05 µM |  |  |  | COc1ccc(Nc2ccc(N(C)c3ccc(C4CCCCC4)cc3)nc2)c(C(=O)O)c1 [CP-598]
6 | 96% | 0.75 µM |  |  |  | Cc1cc(N(C)c2ccc(C3CCCCC3)cc2)ccc1Nc1ccc(OC2CC2)cc1C(=O)O [CP-619]
7 | 87% | 0.382 µM |  |  |  | COc1ccc(Nc2ccc(N(C)c3ccc(C4CCCCC4)cc3)cc2C2CC2)c(C(=O)O)c1 [CP-626]

The next lines start with the compound.

Row | SMILES | inhibition at 10 µM (TEAD2 [1]; Table 3) | IC50 (TEAD2 [2]; [3]) | % of inhibition of TEAD2 palmitoylation at 10 μM (TEAD2 [1]; Table 2) | inhibition at 10 µM (TEAD2 [1]; Table 2) | IC50 (TEAD2 [2]; [4])
8 | O=C(O)c1ccccc1Nc1ccc(Nc2ccc(C34CC5CC(CC(C5)C3)C4)cc2Cl)cc1 [Compound 31] |  |  | 84% and 82% | 99% | 0.377 µM
9 | O=C(O)c1cccc(Nc2ccc(Nc3ccc(C45CC6CC(CC(C6)C4)C5)cc3Cl)cc2)n1 [Compound 90] |  |  |  | 98% | 0.446 µM
10 | CN(c1ccc(N(C)c2ccccc2C(=O)O)cc1)c1ccc(C23CC4CC(CC(C4)C2)C3)cc1 [Compound 100] |  |  |  | 100% | 0.207 µM
11 | CN(c1ccc(N(C)c2ncccc2C(=O)O)cc1)c1ccc(C23CC4CC(CC(C4)C2)C3)cc1Cl [Compound 109] |  |  |  | 100% | 0.346 µM
12 | O=C(O)c1cccnc1Nc1cnn(Cc2ccc(C34CC5CC(CC(C5)C3)C4)cc2Cl)c1 [Compound 112] |  |  |  | 100% | 0.268 µM
13 | O=C(O)c1cccc(Nc2cc(Nc3ccc(C45CC6CC(CC(C6)C4)C5)cc3Cl)cc(C(F)(F)F)c2)n1 [Compound 119] |  |  |  | 100% | 0.106 µM
14 | CN(c1ccc(Nc2ccc(C34CC5CC(CC(C5)C3)C4)cc2Cl)cc1)c1ncccc1C(=O)O [Compound 125] |  |  |  | 96% | 0.771 µM
15 | CN(c1ccc(N(C)c2ncccc2C(=O)O)cc1)c1ccc(C23CC4CC(CC(C4)C2)C3)cc1 [Compound 139] |  |  |  | 95% | 0.312 µM
16 | CN(c1ccc(Oc2ccc(C34CC5CC(CC(C5)C3)C4)cc2Cl)cc1)c1ccccc1C(=O)O [Compound 168] |  |  |  | 97% | 0.173 µM
17 | CN(c1ccc(N(C)c2ccccc2C(=O)O)cc1)c1ccc(C23CC4CC(C)(CC(C)(C4)C2)C3)cc1 [Compound 178] |  |  |  | 100% | 0.227 µM
18 | COc1ccc(Nc2ccc(N(C)c3ccc(C45CC6CC(CC(C6)C4)C5)cc3)cc2)c(C(=O)O)c1 [Compound 250] |  |  |  | 89% | 0.274 µM
19 | O=C(O)c1cccnc1Nc1ccc(Oc2ccc(C34CC5CC(CC(C5)C3)C4)cc2Cl)cc1 [Compound 252] |  |  |  | 100% | 0.053 µM
20 | CC12CC3CC(C)(C1)CC(c1ccc(Oc4ccc(Nc5ccccc5C(=O)O)cc4)c(Cl)c1)(C3)C2 [Compound 253] |  |  |  | 100% | 0.099 µM
21 | CC12CC3CC(C)(C1)CC(c1ccc(Oc4ccc(Nc5ncccc5C(=O)O)cc4)c(Cl)c1)(C3)C2 [Compound 254] |  |  |  | 100% | 0.297 µM
